According to patent publication US9387213B2, “Small molecules inhibiting oncoprotein Myc” (Health Research, Inc., priority 2012, dated 2016):

Columns and labels:
[1] = test system: HO15.19 cells reconstituted with exogenous C-MYC; assay: Inhibition of C-MYC-dependent proliferation, cell cycle distribution by FACS; format: cell-based, rat; conditions: 3 μM
Protocol: In parallel, […] was evaluated for the ability to inhibit C-MYC-dependent proliferation in HO15.19 cells reconstituted with exogenous C-MYC. HO15.19 cells are the only cell line that is capable of continuous proliferation in the absence of any MYC protein expression, a feature that makes this line a reference in the field.

melanoma cells (Mel-9) = assay: Stable-isotope tracing, 13C labeling of central metabolites; format: cell-based; conditions: 13C-glucose, 24 h, compared to control
Protocol: Cells were grown in 6-well plates, and the medium was replaced for the final 24 h of culture with the MEM medium described previously (Scott et al., JBC 286, 42626-34, 2011), containing 50% ^13C-labeled [U-^13C6] glucose or 50% ^13C-labeled [U-^13C5] glutamine] […] Metabolites were extracted and GC-MS analysis and calculation of ^13C labeling were performed as described (Scott et al., 2011). Metabolites were quantified on the basis of fragment ion intensities and standard curves derived from mixtures of standards run concurrently with samples, using the program Metaquant (B. Bunk et al., Bioinformatics 22, 2962-2965, 2006). On the graphs, the 13C labeling percentage is shown as average of to separate experiments (with error bars). Samples from cells treated by antimycon (“N77”), anti-MYC shRNA (“Myc”), nonspecific shRNA (“NS”) and the control treated only by DMSO are shown bars with distinct patterns.

HO-c-Myc cells = assay: Secondary filter for Myc specificity: cell growth inhibition, methylene blue staining; format: cell-based, rat
Protocol: (§1) FIG. 4 illustrates the myc specificity of tested compounds. Rat1a cells expressing c-myc, L-myc or N-myc or lacking any Myc (null) were treated for 72 h with a range of hit compound concentrations. The cells were then fixed and stained with methylene blue and the percentage of cells in the presence of compound compared to DMSO only control was calculated.
(§2) Validated hits were divided into classes when two or more compounds shared significant structural similarity. The ID50 for N-myc transactivation (the inhibitory dose resulting in 50% decrease in luciferase activity) for each hit was calculated from the dose-response N-myc responsive reporter assay. Compounds within each class were ranked by their ID50 for N-myc transactivation and the best compounds within each class were chosen for further studies. In addition, the best of the structurally unique compounds were also analyzed. A total of 46 hits were passed through a secondary filter designed to determine the specificity of the hits for Myc proteins. For this filter, we used a panel of cell lines derived from Rat1a cells (kindly provided by Michael Cole, Dartmouth University): HO-null-c-Myc deficient cells due to homologous recombination that express neither N-myc nor L-myc HO-c-Myc, HO-L-myc and HO-N-myc derived by retroviral transduction of the corresponding Myc genes into HO-null cells. Since each cell line expresses only a single Myc or no Myc family members, we could identify compounds that act through Myc family members as well as which Myc family members. […] The 18 Myc-specific compounds identified during the screening and filtering process are presented in Table 1 and represent distinct classes of molecules, including pyrazoles (e.g., N147A7, N47E10, N147G5), tetrazoles (e.g., N77A7) and 3-bromophenol (e.g., N4G6).

HO-N-myc cells = assay: as above; format: cell-based, rat
Protocol: as §1, §2

[2] = test system: SK-Mel-103 melanoma cells
Protocol: One week following inoculation, treatment with 50 mg/kg N77A7 or Captisol vehicle control commenced. Treatment occurred daily by ip administration. Tumors were measured biweekly. Tumor volume was calculated using the formula tumor volume=L×W^2/2, where W=shortest dimension.
Our Myc inhibitors were tested for their effect against a panel of tumor cell lines, including neuroblastoma and melanoma that represent cell lines with aberrant N-myc and c-Myc expression, respectively. This panel of cell lines included the human neuroblastoma lines BE(2)C, IMR32 and NBL-WN (N-myc amplified), NBL-S (N-myc overexpression), SH-SY5Y (significant N- and c-Myc expression) and SH-EP (low levels c-Myc only) as well as two melanoma cell lines (#3 and #10-c-Myc overexpression) and normal melanocytes).

CCN(CC)c1ccc(/C=N/NC(=O)Cn2nnc(-c3ccccc3)n2)c(O)c1 [Compound N77A7] was tested, and the “HO15.19-C-MYC G2” value ([1]; percent of cells in G2 phase) was 15.39%, the “HO15.19-C-MYC S” value ([1]; percent of cells in S phase) was 34.88% and the “labeling via glucose of serine, glycine, pyruvate, lactate, TCA-cycle metabolites” value (melanoma cells (Mel-9)) was “lower”. For the same compound, the “Myc Index C” value (HO-c-Myc cells; ID50 in HO-null cells divided by ID50 in HO-c-myc cells) was 0.8, the IC50 (HO-c-Myc cells; Rattus norvegicus, cell growth inhibition, 72 h, methylene blue, read-out: ID50 HO-c-myc) was 4700 nM and the “Myc Index N” value (HO-N-myc cells; ID50 in HO-null cells divided by ID50 in HO—N-myc cells) was 4.5. The IC50 (HO-N-myc cells; Rattus norvegicus, cell growth inhibition, 72 h, methylene blue, read-out: ID50 HO—N-myc) was 770 nM, the observable toxicity ([2]; mouse, in vivo) was “absence of any observable toxicity” and the tumor growth ([2]; preliminary, ½ maximum tolerated dose, melanoma xenograft, FIG. 7) was “reduced tumor growth compared to the vehicle control”.
